According to ChEMBL document CHEMBL1156132, “2-Aminopyrazolo[1,5-a]pyrimidines as potent and selective inhibitors of JAK2” (Bioorg Med Chem Lett, 2009):

Tests used:
Conditions in all cases: Sprague-Dawley, rat, iv, 1 mg/kg
in vivo [1] = test: in vivo
Description: Clearance in Sprague-Dawley rat at 1 mg/kg, iv

in vivo [2] = test: in vivo; remark: listed apart in the source
Description: Half life in Sprague-Dawley rat at 1 mg/kg, iv

in vivo [3] = test: in vivo; remark: listed apart in the source

C[C@@H](Nc1cc(-c2c(N)nn3cccnc23)ncn1)c1ccc(F)cc1
clearance (in vivo [1]): 104 mL/min/kg
half-life (in vivo [2]): 54 min
Vd (in vivo [3]): 5.1 L/kg
